Data from PubChem BioAssay AID330 (DTP/NCI, 2004).
Values joined by “and” are separate entries in the source; they are usually repeats but may differ in a detail not shown here. Equal entries are not always repeated. Toxic doses and inconclusive results are not listed. Peptide text beside a SMILES is read from it.

Test system: P388 leukemia ip, CD2F1 mice, survival T/C
Test: NCI In Vivo Anticancer Drug Screen. Data for tumor model P388 Leukemia (intraperitoneal) in CD2F1 (CDF1) mice
Conditions: endpoint: median survival time, higher = longer survival
Method in brief: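 Mice carrying the transplanted tumor received test compound or vehicle. Survival was recorded in each group, and the value is the treated-group measurement divided by that of the vehicle-treated control group.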

[1] = dose: 200.0 mg/kg/injection, schedule: Q04DX003 (ip), vehicle: saline with Tween-80
[2] = dose: 60.0 mg/kg/injection, schedule: Q01DX005 (ip), vehicle: saline with Tween-80
[3] = dose: 50.0 mg/kg/injection, schedule: Q01DX005 (ip), vehicle: saline
[4] = dose: 120.0 mg/kg/injection, schedule: Q01DX005 (ip), vehicle: saline with Tween-80
[5] = dose: 240.0 mg/kg/injection, schedule: Q01DX005 (ip), vehicle: saline with Tween-80
[6] = dose: 50.0 mg/kg/injection, schedule: Q01DX005 (ip), vehicle: saline with Tween-80
[7] = dose: 25.0 mg/kg/injection, schedule: Q01DX009 (ip), vehicle: saline with Tween-80
[8] = dose: 50.0 mg/kg/injection, schedule: Q01DX009 (ip), vehicle: saline with Tween-80
[9] = dose: 100.0 mg/kg/injection, schedule: Q01DX005 (ip), vehicle: saline with Tween-80
[10] = dose: 200.0 mg/kg/injection, schedule: Q01DX005 (ip), vehicle: saline with Tween-80

## C[n+]1ccc(Nc2ccc(NC(=O)c3ccc(Nc4cc[n+](C)c5ccc(N)cc45)cc3)cc2)cc1
dose: 1.0 mg/kg/injection, schedule: Q04DX003 (ip), vehicle: Klucel (hydroxypropylcellulose) (HPC)
  T/C: 116 % of control
dose: 2.0 mg/kg/injection, schedule: Q01DX005 (ip), vehicle: suspension in saline
  T/C: 187 % of control
dose: 2.0 mg/kg/injection, schedule: Q04DX003 (ip), vehicle: Klucel (hydroxypropylcellulose) (HPC)
  T/C: 166 % of control
dose: 2.88 mg/kg/injection, schedule: Q04DX003 (ip), vehicle: water
  T/C: 158 % of control
dose: 4.0 mg/kg/injection, schedule: Q01DX005 (ip), vehicle: suspension in saline
  T/C: 239 % of control
dose: 4.0 mg/kg/injection, schedule: Q04DX003 (ip), vehicle: Klucel (hydroxypropylcellulose) (HPC)
  T/C: 168 % of control
dose: 4.8 mg/kg/injection, schedule: Q04DX003 (ip), vehicle: water
  T/C: 167 % of control
dose: 8.0 mg/kg/injection, schedule: Q01DX005 (ip), vehicle: suspension in saline
  T/C: 283 % of control
dose: 8.0 mg/kg/injection, schedule: Q04DX003 (ip), vehicle: Klucel (hydroxypropylcellulose) (HPC)
  T/C: 237 % of control
dose: 8.0 mg/kg/injection, schedule: Q04DX003 (ip), vehicle: water
  T/C: 200 % of control
dose: 9.0 mg/kg/injection, schedule: Q04DX003 (ip), vehicle: water
  T/C: 170 % of control
dose: 13.3 mg/kg/injection, schedule: Q04DX003 (ip), vehicle: water
  T/C: 238 % of control
dose: 16.0 mg/kg/injection, schedule: Q04DX003 (ip), vehicle: Klucel (hydroxypropylcellulose) (HPC)
  T/C: 270 % of control
dose: 32.0 mg/kg/injection, schedule: Q04DX003 (ip), vehicle: Klucel (hydroxypropylcellulose) (HPC)
  T/C: 294 % of control

## C=C/C(C)=C\CC/C(C)=C/c1cc(C(=O)O)co1
dose: 4.0 mg/kg/injection, schedule: Q01DX009 (ip), vehicle: Klucel (hydroxypropylcellulose) (HPC)
  T/C: 104 % of control
dose: 8.0 mg/kg/injection, schedule: Q01DX009 (ip), vehicle: Klucel (hydroxypropylcellulose) (HPC)
  T/C: 100 % of control
dose: 16.0 mg/kg/injection, schedule: Q01DX009 (ip), vehicle: Klucel (hydroxypropylcellulose) (HPC)
  T/C: 99 % of control
dose: 32.0 mg/kg/injection, schedule: Q01DX009 (ip), vehicle: Klucel (hydroxypropylcellulose) (HPC)
  T/C: 100 % of control

## CCOC1CC2(O)c3c(cc4c(c3O)C(=O)c3c(O)ccc(O)c3C4=O)OC2O1 (centres undefined)
dose: 100.0 mg/kg/injection, schedule: Q01DX001 (ip), vehicle: saline
  T/C: 103 % of control
dose: 200.0 mg/kg/injection, schedule: Q01DX001 (ip), vehicle: saline
  T/C: 109 % of control
dose: 400.0 mg/kg/injection, schedule: Q01DX001 (ip), vehicle: saline
  T/C: 116 % of control

## NC(=O)C(CCc1nc2ccccc2[nH]1)NS(=O)(=O)c1ccccc1 (centres undefined)
dose: 50.0 mg/kg/injection, schedule: Q01DX009 (ip), vehicle: Klucel (hydroxypropylcellulose) (HPC)
  T/C: 102 % of control
dose: 100.0 mg/kg/injection, schedule: Q01DX009 (ip), vehicle: Klucel (hydroxypropylcellulose) (HPC)
  T/C: 101 % of control
dose: 200.0 mg/kg/injection, schedule: Q01DX009 (ip), vehicle: Klucel (hydroxypropylcellulose) (HPC)
  T/C: 102 % of control

## O=S1(=O)CS/C(=N\C(=S)N(c2ccccc2)c2ccccc2)N1c1ccccc1
dose: 3.13 mg/kg/injection, schedule: Q04DX003 (ip), vehicle: saline with Tween-80
  T/C: 106 % of control
dose: 6.25 mg/kg/injection, schedule: Q04DX003 (ip), vehicle: saline with Tween-80
  T/C: 99 % of control
dose: 12.5 mg/kg/injection, schedule: Q04DX003 (ip), vehicle: saline with Tween-80
  T/C: 94 % of control and 95 % of control
dose: 50.0 mg/kg/injection, schedule: Q04DX003 (ip), vehicle: saline with Tween-80
  T/C: 86 % of control
[1]
  T/C: 93 % of control

## O=[N+]([O-])/C=C/c1cc2c(cc1Br)OCO2
dose: 100.0 mg/kg/injection, schedule: Q04DX003 (ip), vehicle: saline with Tween-80
  T/C: 113 % of control
[1]
  T/C: 113 % of control

## FC1(F)SC(F)(F)S1
dose: 50.0 mg/kg/injection, schedule: Q01DX005 (ip), vehicle: Klucel (hydroxypropylcellulose) (HPC)
  T/C: 108 % of control
dose: 100.0 mg/kg/injection, schedule: Q01DX005 (ip), vehicle: Klucel (hydroxypropylcellulose) (HPC)
  T/C: 108 % of control
dose: 200.0 mg/kg/injection, schedule: Q01DX005 (ip), vehicle: Klucel (hydroxypropylcellulose) (HPC)
  T/C: 108 % of control

## CC(=O)OC1C(CO)OC2C1Oc1nc(=N)c(F)cn12 (centres undefined)
dose: 0.39 mg/kg/injection, schedule: Q01DX009 (ip), vehicle: saline with Tween-80
  T/C: 116 % of control
dose: 1.56 mg/kg/injection, schedule: Q01DX009 (ip), vehicle: saline with Tween-80
  T/C: 160 % of control
dose: 3.13 mg/kg/injection, schedule: Q01DX009 (ip), vehicle: saline with Tween-80
  T/C: 91 % of control
dose: 3.13 mg/kg/injection, schedule: Q01DX009 (ip), vehicle: saline
  T/C: 101 % of control
dose: 6.25 mg/kg/injection, schedule: Q01DX009 (ip), vehicle: saline
  T/C: 87 % of control and 88 % of control and 93 % of control
dose: 12.5 mg/kg/injection, schedule: Q01DX009 (ip), vehicle: saline
  T/C: 117 % of control
dose: 50.0 mg/kg/injection, schedule: Q01DX009 (ip), vehicle: saline
  T/C: 161 % of control

## Cc1nc2ccc(N)cc2oc1=O
dose: 15.0 mg/kg/injection, schedule: Q01DX005 (ip), vehicle: saline with Tween-80
  T/C: 100 % of control
dose: 30.0 mg/kg/injection, schedule: Q01DX005 (ip), vehicle: saline with Tween-80
  T/C: 101 % of control
[2]
  T/C: 105 % of control and 98 % of control

## CC(O)C(N)C(=O)NC(Cc1ccc(O)cc1)C(=O)NC(CO)C(=O)NC(CCCCN)C(=O)O (centres undefined) (H-TYSK-OH; configuration not given here)
[3]
  T/C: 99 % of control
dose: 100.0 mg/kg/injection, schedule: Q01DX005 (ip), vehicle: saline
  T/C: 107 % of control
dose: 200.0 mg/kg/injection, schedule: Q01DX005 (ip), vehicle: saline
  T/C: 106 % of control

## O=C(Nc1ccccc1)ON=C1CCCCC1
[2]
  T/C: 101 % of control
[4]
  T/C: 96 % of control
[5]
  T/C: 99 % of control

## CCN=C(N)Nc1nc(C)c2cc(Cl)ccc2n1
dose: 12.5 mg/kg/injection, schedule: Q01DX005 (ip), vehicle: saline
  T/C: 104 % of control
dose: 25.0 mg/kg/injection, schedule: Q01DX005 (ip), vehicle: saline
  T/C: 104 % of control
[6]
  T/C: 109 % of control
[3]
  T/C: 111 % of control

## CCCCN(CCCC)CC(O)c1c(OC)c2cc(Cl)ccc2c2ccc(Cl)cc12 (centres undefined)
[7]
  T/C: 94 % of control
[8]
  T/C: 100 % of control

## COC(=O)c1cc(O)c(O)c(O)c1
[6]
  T/C: 105 % of control
[9]
  T/C: 108 % of control
[10]
  T/C: 119 % of control

## COc1ccc(C(c2cc3c(cc2O)OCO3)n2ccnc2)cc1 (centres undefined)
[2]
  T/C: 99 % of control
[4]
  T/C: 99 % of control
[5]
  T/C: 96 % of control

## C[C@]12CC[C@@H]3c4ccc(O)c(N)c4CC[C@H]3[C@@H]1CC[C@@H]2O
dose: 12.5 mg/kg/injection, schedule: Q01DX005 (ip), vehicle: saline with Tween-80
  T/C: 93 % of control
dose: 25.0 mg/kg/injection, schedule: Q01DX005 (ip), vehicle: saline with Tween-80
  T/C: 88 % of control
[6]
  T/C: 94 % of control
[9]
  T/C: 90 % of control
[10]
  T/C: 90 % of control

## Cc1c(C=O)cc(-c2ccccc2)n1C
[6]
  T/C: 89 % of control
[9]
  T/C: 89 % of control
[10]
  T/C: 91 % of control

## COc1ccc2c(c1)CCC1C2CCC2(C)/C(=N/O)C3OC3C12 (centres undefined)
dose: 12.5 mg/kg/injection, schedule: Q01DX009 (ip), vehicle: saline with Tween-80
  T/C: 94 % of control and 95 % of control
[7]
  T/C: 110 % of control and 94 % of control
[8]
  T/C: 101 % of control and 94 % of control
dose: 100.0 mg/kg/injection, schedule: Q01DX009 (ip), vehicle: saline with Tween-80
  T/C: 101 % of control and 94 % of control
